Experimental data: US20230190695A1, “TRIBUTYRIN SUPPLEMENTATION PROVIDES BENEFITS FOR MENTAL WELLNESS, IMMUNE HEALTH AND FAT METABOLISM” (PHARMAVITE LLC, priority 2021, published 2023)

Key:
[1] = tested on: combined microbiota of 10 healthy adult human donors; test: Colonic simulation, in vitro gut simulation model: butyrate and microbial metabolites; set-up: Indole-3-acetic acid / Indole-3-aldehyde / Indole-3-ethanol / Tryptophan / 5-Hydroxyindoleacetic acid / Tryptamine: unit not given here; conditions: for 1-Acetyl-3-indolecarboxyaldehyde / 5-Hydroxyindoleacetic acid / Indole / Indole-3-acetic acid / Indole-3-acrylic acid / Melatonin / Serotonin / Skatole / Tryptamine / Tryptophan / Indole-3-ethanol / Indole-3-aldehyde / Indole-3-propionic acid: Treatment; for average increase of butyrate as compared to the control period / average increase of butyrate: highest dose (59% of 1000 mg/day); for average increase of butyrate: vs control period
Procedure: The impact of two doses of tributyrin on gut microbiota composition and microbial metabolites was studied in an in vitro gut simulation model using combined microbiota of 10 healthy adult human donors (5 males, 5 females, 30-60 years old, BMI<30). The retention times and pH ranges were optimized in order to obtain results that are representative for a full GIT simulation. A stabilization period was followed by a two-week control period and three weeks of treatment, where 59% of 300 mg/day or 59% of 1000 mg/day was administered daily (based on release profile described above). Samples were collected at the end of control period and treatment period. Both doses were performed in biological triplicate to account for biological variability.

[2] = tested on: combined microbiota of 10 healthy adult human donors; test: Colonic simulation, in vitro gut simulation model: microbial composition
Procedure: The impact of two doses of tributyrin on gut microbiota composition and microbial metabolites was studied in an in vitro gut simulation model using combined microbiota of 10 healthy adult human donors (5 males, 5 females, 30-60 years old, BMI<30). The retention times and pH ranges were optimized in order to obtain results that are representative for a full GIT simulation. A stabilization period was followed by a two-week control period and three weeks of treatment, where 59% of 300 mg/day or 59% of 1000 mg/day was administered daily (based on release profile described above). Samples were collected at the end of control period and treatment period. Both doses were performed in biological triplicate to account for biological variability. […] Higher ratio of Bacteroidetes:Firmicutes is associated with lean phenotype. Tributyrin treatment increases this ratio as illustrated in FIG. 4 and therefore may provide metabolic health benefit. • At species level, importantly, Akkermansia muciniphila and Faecalibacterium prausnitzii were enriched in tributyrin-treated compartments. • Akkermansia muciniphila is an acetate and propionate-producing, mucin-degrading bacteria. Its presence in the gut is associated with health benefits. An inverse relationship- between colonization of Akkermansia muciniphila and inflammatory conditions or obesity have been shown. […] Both Parabacteroides distasonis and Parabacteroides goldsteinii were stimulated in the proximal colon and distal colon for both low and high doses of tributyrin.

[3] = tested on: Caco-2/THP1 (colonic cells/macrophages) co-culture; test: Caco-2/THP1 co-culture immunomodulation model; format: cell-based
Source text: An in vitro Caco-2/THP1 (colonic cells/macrophages) co-culture model was used to assess the effect of microbial metabolites on proinflammatory or ant-inflammatory cytokines and chemokines which serve as markers for immunomodulation.

C57BL/6J mice [4] = test: Forced swim test (FST) after acute restraint stress; format: in vivo; conditions: for time immobile in the FST: combined female + male, study day 52; for immobility in the FST: vs sex-matched untreated stressed control
Procedure: (§1) A study was conducted to evaluate tributyrin on stress and mood-related behaviors in female and male C57BL/6J mice. The animals were given immediate ad libitum access to water and standard rodent chow and were acclimated to the facility for 7 days. On study day -3, fat and muscle content was measured using nuclear magnetic resonance spectroscopy (NMR: MiniSpec NMR, Bruker LF50 Body Composition Analyzer). On study day 0, the animals were weighed, blood and fecal samples (1-2 pellets/animal) were collected, and the animals were randomized into their specific treatment group. Daily oral gavage of 4 distinct groups commenced as follows: • Treatment 1: daily PBS vehicle + no acute stress before behavioral measures • Treatment 2: daily PBS vehicle + acute stress before behavioral measures • Treatment 3: daily low-dose tributyrin (60 mg/kg/d) + acute stress before behavioral measures • Treatment 4: daily high-dose tributyrin (200 mg/kg/d) + acute stress before behavioral measures
(§2) After 7 weeks of intervention, blood and fecal samples were collected on study day 49, and fecal collection was repeated on study days 50 and 52. On study day 52, animals assigned to the acute stress groups were acutely restrained for two hours while unstressed animals were housed singly for 140 minutes in fresh cages. […] All animals were then tested in the forced swim test (FST). A retro-orbital blood sample was collected within 15 to 30 minutes after the FST, and fecal pellets were collected (for corticosterone measurements). On study day 53, the animals were weighed, and body composition by NMR was performed a second time. The study was terminated on study day 56, blood was collected and necropsies were performed. Serum cytokine levels were evaluated in terminal serum.
Forced Swim Test (FST) is a test centered on a rodent’s response to unescapable stress. Results of this test have been interpreted as a measure of susceptibility to negative mood. It is commonly used to measure the effectiveness of antidepressants. Forced swim tests were performed on study day 52 for each cohort of mice.

C57BL/6J mice [5] = test: Fecal corticosterone after forced swim test; format: in vivo; conditions: male mice; 200 mg/kg/d; vs stressed vehicle control
Procedure: as §1
After 7 weeks of intervention, blood and fecal samples were collected on study day 49, and fecal collection was repeated on study days 50 and 52. On study day 52, animals assigned to the acute stress groups were acutely restrained for two hours while unstressed animals were housed singly for 140 minutes in fresh cages. […] Serum cytokine levels were evaluated in terminal serum. […]

C57BL/6J mice [6] = test: Body weight and body composition by NMR; format: in vivo; conditions: for final fat as a percentage of baseline: all mice, vs combined unstressed untreated control
Procedure: as §1, §2

C57BL/6J mice [7] = test: Cytokine concentrations in terminal serum; format: in vivo; conditions: male mice
Procedure: as §1, §2

C57BL/6J mice [8] = test: Fecal metabolite analysis (GC, UHPLC-HRMS); format: in vivo
Procedure: as §1, §2
Gut microbiota metabolizes ingested food and supplements in the colon thereby producing various metabolites, which have an impact on several host biological processes. These metabolites generated in the colon can be measured in the feces. A panel of metabolites were measured in feces collected from experimental mice 8 weeks post-treatment. Fecal SCFA were measured by Gas Chromatography (GC) and tryptophan metabolites were measured using Ultra High Performance Liquid Chromatography High Resolution Mass Spectrometry (UHPLC-HRMS). Comparisons were made between stressed untreated mice and tributyrin treated stressed mice.

[9] = Distal Colon, High Dose (59% of 1000 mg/day)
[10] = Distal Colon, Low Dose (59% of 300 mg/day)
[11] = Proximal Colon, High Dose (59% of 1000 mg/day)
[12] = Proximal Colon, Low Dose (59% of 300 mg/day)
[13] = proximal colon and distal colon, both low and high doses
[14] = DC-Low (distal colon, low dose)
[15] = PC-High (proximal colon, high dose)
[16] = PC-Low (proximal colon, low dose)
[17] = 60 mg/kg/d, vs stressed vehicle control
[18] = low dose (60 mg/kg/d), 8 weeks post-treatment

## CCCC(=O)OCC(COC(=O)CCC)OC(=O)CCC [tributyrin]
[1]; [9]
  1-Acetyl-3-indolecarboxyaldehyde: < LOD
  5-Hydroxyindoleacetic acid: 0.001
  Indole: < LOD
  Indole-3-acetic acid: 0.644
  Indole-3-acrylic acid: < LOD
  Melatonin: < LOD
  Serotonin: < LOD
  Skatole: < LOD
  Tryptamine: 0.175
  Tryptophan: 0.095
[1]; [10]
  1-Acetyl-3-indolecarboxyaldehyde: < LOD
  5-Hydroxyindoleacetic acid: 0.001
  Indole: < LOD
  Indole-3-acrylic acid: < LOD
  Indole-3-ethanol: 0.284
  Melatonin: < LOD
  Serotonin: < LOD
  Skatole: < LOD
  Tryptamine: 0.205
  Tryptophan: 0.116
[1]; [11]
  1-Acetyl-3-indolecarboxyaldehyde: < LOD
  5-Hydroxyindoleacetic acid: 0.008
  Indole: < LOD
  Indole-3-acetic acid: 0.916
  Indole-3-acrylic acid: < LOD
  Indole-3-aldehyde: 0.058
  Indole-3-propionic acid: 0.01
  Melatonin: < LOD
  Serotonin: < LOD
  Skatole: < LOD
  Tryptamine: 0.105
[1]; [12]
  1-Acetyl-3-indolecarboxyaldehyde: < LOD
  5-Hydroxyindoleacetic acid: 0.01
  Indole: < LOD
  Indole-3-acrylic acid: < LOD
  Indole-3-aldehyde: 0.06
  Indole-3-ethanol: 0.266
  Indole-3-propionic acid: 0.008
  Melatonin: < LOD
  Serotonin: < LOD
  Skatole: < LOD
  Tryptamine: 0.118
[1]; both proximal colon and distal colon, on initiation of treatment
  butyrate levels: significantly enhanced
[1]; distal colon
  average increase of butyrate as compared to the control period: 78.8%
  average increase of butyrate: 7.7 mM
[1]; proximal colon
  average increase of butyrate as compared to the control period: 91.9%
  average increase of butyrate: 7.4 mM
[2]; PC and DC, low and high dose
  Faecalibacterium prausnitzii abundance: enriched
[2]; PC and DC, low- and high-dose
  Akkermansia muciniphila abundance: enriched
[2]; both low and high dose
  gut microbial diversity (Simpson Diversity Index): increase
[2]; distal colon, low and high dose vs control (FIG. 4)
  ratio of Bacteroidetes:Firmicutes: increases
[2]; proximal colon
  Parabacteroides merdae ATCC 43184 abundance: specific stimulation
  Tannerellaceae levels: increased
[2]; [13]
  Parabacteroides distasonis abundance: stimulated
  Parabacteroides goldsteinii abundance: stimulated
[3]; [14]
  IL6, treatment suspensions normalized to blank control suspensions: 1.13
  IL10, treatment suspensions normalized to blank control suspensions: 1.03
  IL-1B, treatment suspensions normalized to blank control suspensions: 1.07
  MCP1, treatment suspensions normalized to blank control suspensions: 1.05
[3]; [15]
  IL6, treatment suspensions normalized to blank control suspensions: 1.31
  IL8, treatment suspensions normalized to blank control suspensions: 1.03
  IL-1B, treatment suspensions normalized to blank control suspensions: 1.08
  MCP1, treatment suspensions normalized to blank control suspensions: 0.97
[3]; [16]
  IL6, treatment suspensions normalized to blank control suspensions: 1.01
  IL8, treatment suspensions normalized to blank control suspensions: 1.3
  IL10, treatment suspensions normalized to blank control suspensions: 1.06
  IL-1B, treatment suspensions normalized to blank control suspensions: 1.08
  TNFa, treatment suspensions normalized to blank control suspensions: 1.06
C57BL/6J mice [4]; 60 mg/kg/d oral gavage, vs stressed untreated control
  time immobile in the FST: reductions in time immobile in the FST were statistically significant
C57BL/6J mice [4]; 60 mg/kg, females
  immobility in the FST: reduced immobility
C57BL/6J mice [4]; 200 mg/kg/d oral gavage, vs stressed untreated control and vs unstressed control
  time immobile in the FST: reductions in time immobile in the FST were statistically significant
C57BL/6J mice [4]; 200 mg/kg, males
  immobility in the FST: reduced immobility
C57BL/6J mice [5]
  fecal corticosterone levels after FST: statistical reduction
C57BL/6J mice [6]; 60 mg/kg/d
  final fat as a percentage of baseline: statistically reduced
C57BL/6J mice [6]; 200 mg/kg/d
  final fat as a percentage of baseline: statistically reduced
C57BL/6J mice [6]; treated mice vs untreated control
  Lean:Fat ratio: significantly increased
C57BL/6J mice [7]; 60 mg/kg/d, vs stressed mice
  IL-2 in terminal serum: reduced significantly
  IL-4 in terminal serum: reduced significantly
C57BL/6J mice [7]; [17]
  IFNγ in terminal serum: significantly reduced
  MIP-1a in terminal serum: significantly reduced
C57BL/6J mice [7]; 200 mg/kg/d, vs stressed mice
  IL-4 in terminal serum: reduced significantly
C57BL/6J mice [7]; 200 mg/kg/d, vs stressed vehicle control
  MIP-1a in terminal serum: significantly reduced
C57BL/6J mice [8]; high dose (200 mg/kg/d), 8 weeks post-treatment
  tryptophan in feces: 142.8 ± 53.4 ng/mg
C57BL/6J mice [8]; [18]
  Indole-3-acetic acid in feces: 1.56 ± 1.17 ng/mg
  tryptophan in feces: 154.9 ± 98.7 ng/mg
C57BL/6J mice [8]; treated mice vs untreated stressed controls
  fecal SCFA levels: No differences
